Test results as given in ChEMBL document CHEMBL1201862, “PubChem BioAssay data set” (2004).
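Briefly, cells in 96-well plates were exposed to five compound concentrations for 48 h, and endpoints were estimated by linear interpolation. At the GI50, growth is halved.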 The source made the active and inactive calls. No stated cut-off is given here; in the data, active = GI50 up to about 1.1 µM and inactive = higher.

Legend:
Assay in all cases: inhibition of tumour cell growth, NCI panel, 48 h
SF-539 = test system: SF-539
OVCAR-4 = test system: OVCAR-4
A498 = test system: A498
NCI-H23 = test system: NCI-H23
MDA-MB-435 = test system: MDA-MB-435
RXF 393 = test system: RXF 393
MDA-MB-231 = test system: MDA-MB-231
UACC-257 = test system: UACC-257
SNB-19 = test system: SNB-19
Malme-3M = test system: Malme-3M
NCI-H522 = test system: NCI-H522
EKVX = test system: EKVX
NCI-H460 = test system: NCI-H460
SK-MEL-28 = test system: SK-MEL-28
MCF7 = test system: MCF7
HOP-92 = test system: HOP-92
HCT-15 = test system: HCT-15
UACC-62 = test system: UACC-62

| Structure (SMILES) | GI50 (SF-539) | GI50 (OVCAR-4) | GI50 (A498) | GI50 (NCI-H23) | GI50 (MDA-MB-435) | GI50 (RXF 393) | GI50 (MDA-MB-231) | GI50 (UACC-257) | GI50 (SNB-19) | GI50 (Malme-3M) | GI50 (NCI-H522) | GI50 (EKVX) | GI50 (NCI-H460) | GI50 (SK-MEL-28) | GI50 (MCF7) | GI50 (HOP-92) | GI50 (HCT-15) | GI50 (UACC-62) |
| --- | --- | --- | --- | --- | --- | --- | --- | --- | --- | --- | --- | --- | --- | --- | --- | --- | --- | --- |
| CSc1ncnc2c1ncn2CCC(=O)OC(C)(C)C | > 100 µM (inactive) | > 100 µM (inactive) | > 100 µM (inactive) | > 100 µM (inactive) | > 100 µM (inactive) | > 100 µM (inactive) | > 100 µM (inactive) | > 100 µM (inactive) | > 100 µM (inactive) | > 100 µM (inactive) | > 100 µM (inactive) | > 100 µM (inactive) | > 100 µM (inactive) | > 100 µM (inactive) | > 100 µM (inactive) | > 100 µM (inactive) |  |  |
| CC(C)c1c(O[Si](C(C)C)(C(C)C)C(C)C)c2c3c(ccc4c3c1OC4(C)C)C(C)CC2 (stereo unspecified) | > 100 µM (inactive) | > 100 µM (inactive) | > 100 µM (inactive) | > 100 µM (inactive) | > 100 µM (inactive) | > 100 µM (inactive) | > 100 µM (inactive) | > 100 µM (inactive) | > 100 µM (inactive) | > 100 µM (inactive) | > 100 µM (inactive) | > 100 µM (inactive) | > 100 µM (inactive) | > 100 µM (inactive) | > 100 µM (inactive) | > 100 µM (inactive) | > 100 µM | > 100 µM (inactive) |
| CC1CC(N)=C(C#N)C1(C#N)C#N (stereo unspecified) | > 100 µM (inactive) |  | > 100 µM (inactive) | > 100 µM (inactive) | > 100 µM (inactive) | > 100 µM (inactive) | > 100 µM (inactive) | > 100 µM (inactive) | > 100 µM (inactive) | > 100 µM (inactive) | > 100 µM (inactive) | > 100 µM (inactive) |  |  | > 100 µM (inactive) | > 100 µM (inactive) | 28.4 µM | > 100 µM (inactive) |
| O=C(O)C1C2C=CC(O2)C1C(=O)NCc1ccncc1 (stereo unspecified) | > 100 µM (inactive) | > 100 µM (inactive) | > 100 µM (inactive) |  | > 100 µM (inactive) | > 100 µM (inactive) | > 100 µM (inactive) | > 100 µM (inactive) | > 100 µM (inactive) | > 100 µM (inactive) | > 100 µM (inactive) | > 100 µM (inactive) | > 100 µM (inactive) | > 100 µM (inactive) | > 100 µM (inactive) | > 100 µM (inactive) |  | > 100 µM (inactive) |
| CCOC(=O)Nc1ccc2c(c1)c(CCCCCCc1nc3ccccc3c3ccc(NC(=O)OCC)cc13)nc1ccccc12 | 12.5 µM (inactive) | 29.3 µM (inactive) | 31.3 µM (inactive) | > 100 µM (inactive) | 59.7 µM (inactive) | 47.2 µM (inactive) | 30.5 µM (inactive) | 47.2 µM (inactive) | 30.1 µM (inactive) | > 10 µM (inactive) | 22.9 µM (inactive) | < 0.01 µM (active) | 61.9 µM (inactive) | 52.6 µM (inactive) | > 100 µM (inactive) | 21.8 µM (inactive) | > 100 µM | > 100 µM (inactive) |
| COCc1cc2c(cc1/C(=C/[N+](=O)[O-])CS(=O)(=O)c1ccccc1)OCO2 | > 100 µM (inactive) |  | > 100 µM (inactive) | > 100 µM (inactive) | > 100 µM (inactive) | > 100 µM (inactive) |  | > 100 µM (inactive) |  |  | 43.6 µM (inactive) | > 100 µM (inactive) | > 100 µM (inactive) | > 100 µM (inactive) | > 100 µM (inactive) | > 100 µM (inactive) | > 100 µM | > 100 µM (inactive) |
| N#CCCC1(CCC#N)CCCCCCCCC(CCC#N)(CCC#N)C(O)C1O (stereo unspecified) | 29.8 µM (inactive) | > 100 µM (inactive) | 94.6 µM (inactive) | > 100 µM (inactive) | > 100 µM (inactive) | 31.9 µM (inactive) |  | > 100 µM (inactive) | 66.7 µM (inactive) | > 100 µM (inactive) | 30.3 µM (inactive) | > 100 µM (inactive) | > 100 µM (inactive) | > 100 µM (inactive) | > 100 µM (inactive) | > 100 µM (inactive) | > 100 µM | > 100 µM (inactive) |
| [O-][S+](CCc1ccccc1)Nc1ccccc1 (stereo unspecified) | > 100 µM (inactive) |  |  | > 100 µM (inactive) | > 100 µM (inactive) | 55.5 µM (inactive) | > 100 µM (inactive) | 99.3 µM (inactive) | > 100 µM (inactive) | > 100 µM (inactive) | > 100 µM (inactive) | > 100 µM (inactive) | > 100 µM (inactive) | > 100 µM (inactive) | > 100 µM (inactive) |  | > 100 µM |  |
| N#Cc1c2c(c(N=[N+]=[N-])n3c1nc1ccccc13)CCCC2 | 1.93 µM (inactive) | 2.49 µM (inactive) | 2.65 µM (inactive) | 2.55 µM (inactive) |  | 1.77 µM (inactive) |  | 1.71 µM (inactive) | 2.55 µM (inactive) | 2.4 µM (inactive) |  | 16.9 µM (inactive) | 1.92 µM (inactive) | 4.12 µM (inactive) |  |  | 2.07 µM |  |
| COc1ccc(-c2c(C(C)=O)c(C)n(C3OC(COC(C)=O)C(OC(C)=O)C(OC(C)=O)C3OC(C)=O)c(=S)c2C#N)cc1 (stereo unspecified) | > 100 µM (inactive) | 73.1 µM (inactive) | > 100 µM (inactive) | > 100 µM (inactive) | > 100 µM (inactive) | 80.7 µM (inactive) | 29.1 µM (inactive) | > 100 µM (inactive) | 89.9 µM (inactive) | > 100 µM (inactive) | > 100 µM (inactive) |  | 81.5 µM (inactive) | > 100 µM (inactive) | > 100 µM (inactive) | 15 µM (inactive) | > 100 µM | 36.6 µM (inactive) |
| O=c1c(Br)cc2c(-c3ccccc3)c3cc(Br)c(O)c(Br)c3oc-2c1Br | 39.5 µM (inactive) | 22.3 µM (inactive) | 27.3 µM (inactive) | > 100 µM (inactive) | > 100 µM (inactive) | > 100 µM (inactive) | > 100 µM (inactive) | > 100 µM (inactive) | > 100 µM (inactive) | > 100 µM (inactive) |  | > 100 µM (inactive) | 77.4 µM (inactive) | > 100 µM (inactive) | 79.3 µM (inactive) | > 100 µM (inactive) | 56 µM | > 100 µM (inactive) |
| COc1ccc(N[S+]([O-])CCc2ccccc2)cc1 (stereo unspecified) | > 100 µM (inactive) |  |  | > 100 µM (inactive) | > 100 µM (inactive) | > 100 µM (inactive) | > 100 µM (inactive) | > 100 µM (inactive) | > 100 µM (inactive) | > 100 µM (inactive) | > 100 µM (inactive) | > 100 µM (inactive) | > 100 µM (inactive) | > 100 µM (inactive) | > 100 µM (inactive) |  | > 100 µM |  |
| Cc1ncc([N+](=O)[O-])n1CCNC(=O)CCCn1cnc([N+](=O)[O-])n1 | > 100 µM (inactive) | > 100 µM (inactive) | > 84.3 µM (inactive) | > 100 µM (inactive) | > 100 µM (inactive) | > 100 µM (inactive) | > 100 µM (inactive) | > 100 µM (inactive) | > 100 µM (inactive) | > 100 µM (inactive) | > 100 µM (inactive) | > 31.6 µM (inactive) | > 100 µM (inactive) | > 100 µM (inactive) | > 100 µM (inactive) | > 100 µM (inactive) | > 76.6 µM | > 100 µM (inactive) |
